Experimental data published in article PMC11211886 (Frontiers in Pharmacology, 2024).

How the values were obtained:
OCT2 = biological target: T1, OCT2 (Homo sapiens, UniProt O15244); assay: OCT2 inhibition, metformin uptake in transfected HEK293 cells
T1 sequence (O15244 1-555): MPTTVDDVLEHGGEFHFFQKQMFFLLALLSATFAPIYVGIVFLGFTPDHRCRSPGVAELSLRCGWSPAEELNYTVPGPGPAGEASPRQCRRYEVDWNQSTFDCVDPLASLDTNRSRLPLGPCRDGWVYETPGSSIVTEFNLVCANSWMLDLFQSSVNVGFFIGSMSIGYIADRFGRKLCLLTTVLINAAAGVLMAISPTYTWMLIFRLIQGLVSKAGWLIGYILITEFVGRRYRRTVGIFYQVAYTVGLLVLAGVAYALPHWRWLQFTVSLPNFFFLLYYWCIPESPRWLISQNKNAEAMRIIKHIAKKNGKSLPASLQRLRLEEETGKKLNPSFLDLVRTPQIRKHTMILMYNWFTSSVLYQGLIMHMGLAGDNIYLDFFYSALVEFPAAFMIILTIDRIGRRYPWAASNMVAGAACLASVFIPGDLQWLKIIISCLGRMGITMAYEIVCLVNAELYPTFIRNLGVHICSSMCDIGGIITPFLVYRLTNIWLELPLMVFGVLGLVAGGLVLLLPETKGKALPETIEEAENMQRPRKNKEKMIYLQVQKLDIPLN
Procedure: (§1) The pre-incubation solutions were removed, and incubation solutions containing the inhibitors and probe substrates (or transport buffer containing an equal volume of vehicle control and probe substrates) were added and incubated at 37°C for 2 min (5 min for OATP1B3). The probe substrate for OAT1 was 4-aminohippuric acid (10 μM), for OAT3 was estrone 3-sulfate (10 μM), for OCT2 was metformin (100 μM), for OATP1B1 was β-estradiol 17-(β-D-glucuronide) (5 μM), for OATP1B3 was β-estradiol 17-(β-D-glucuronide) (10 μM), and for MATE1 and MATE2-K was tetraethylammonium (10 μM). After incubation, cells were washed three times with ice-cold transport buffer (25 mM HEPES, pH 7.4, pH 8.0 for overexpressing MATE1 and MATE2-K HEK293 cells) and lysed in distilled water. The concentrations of probe substrates were determined by LC-MS/MS, and a BCA Kit (Solarbio ®Life Sciences, Beijing, China) was used to determine the protein content in the cell lysate.
(§2) where C is the concentration of the drug in the cell lysate (nM), P is the protein concentration of the cell lysate (mg/mL), and T is the incubation time (minute). Uptake ratetest compound is the uptake rate of the substrate in the presence of the test compound. Uptake ratevehicle control is the uptake rate of the substrate in the presence of the vehicle control. Uptake ratepassive is the uptake rate of the substrate in the presence of the positive inhibitor at the top test concentration.

OAT3 = biological target: T2, OAT3 (Homo sapiens, UniProt Q8TCC7); assay: OAT3 inhibition, estrone 3-sulfate uptake in transfected HEK293 cells
T2 sequence (Q8TCC7 1-542): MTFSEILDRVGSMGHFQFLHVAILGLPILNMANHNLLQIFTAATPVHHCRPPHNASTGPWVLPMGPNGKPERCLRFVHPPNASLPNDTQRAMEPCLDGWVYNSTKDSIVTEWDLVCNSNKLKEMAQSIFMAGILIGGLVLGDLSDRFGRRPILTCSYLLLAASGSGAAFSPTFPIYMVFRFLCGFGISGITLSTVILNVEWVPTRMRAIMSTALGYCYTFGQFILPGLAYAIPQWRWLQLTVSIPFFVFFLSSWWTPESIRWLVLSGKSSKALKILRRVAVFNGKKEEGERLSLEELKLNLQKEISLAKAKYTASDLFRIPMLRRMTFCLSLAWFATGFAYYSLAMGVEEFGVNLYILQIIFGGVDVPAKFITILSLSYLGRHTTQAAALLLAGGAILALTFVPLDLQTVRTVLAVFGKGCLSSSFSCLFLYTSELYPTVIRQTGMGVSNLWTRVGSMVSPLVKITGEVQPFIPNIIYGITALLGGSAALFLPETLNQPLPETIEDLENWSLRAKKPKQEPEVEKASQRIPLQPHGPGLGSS
Procedure: as §1, §2

With `C[C@H](Nc1ncnc(N)c1C#N)c1cc2ncc(Cl)n2nc1-c1ccccc1` [Amdizalisib] the IC50 (OCT2) was over 100 µM, the “calculated R value (OCT2)” value (OCT2) was under 1.1 and the Percentage transported (OCT2; OCT2, compound 0.3 μM) was 98.7%. It also gave an Uptake rate (OCT2; OCT2, compound 0.3 μM) of 772±136 pmol/mg protein/min, a Percentage transported (OCT2; OCT2, compound 1 μM) of 93.3% and an Uptake rate (OCT2; OCT2, compound 1 μM) of 733±47.7 pmol/mg protein/min. It also gave a Percentage transported (OCT2; OCT2, compound 3 μM) of 95.1%, an Uptake rate (OCT2; OCT2, compound 3 μM) of 746±13.4 pmol/mg protein/min and a Percentage transported (OCT2; OCT2, compound 10 μM) of 92.7%. The Uptake rate (OCT2; OCT2, compound 10 μM) was 728±32.8 pmol/mg protein/min, the Percentage transported (OCT2; OCT2, compound 30 μM) was 108% and the Uptake rate (OCT2; OCT2, compound 30 μM) was 839±49.9 pmol/mg protein/min. It also gave a Percentage transported (OCT2; OCT2, compound 100 μM) of 50.8%, an Uptake rate (OCT2; OCT2, compound 100 μM) of 429±46.2 pmol/mg protein/min and an inhibition at 2 min, 0.3 µM (OCT2; human, pH 7.4) of 1.28%. For the same compound, the inhibition at 2 min, 1 µM (OCT2; human, pH 7.4) was 6.72%, the inhibition at 2 min, 3 µM (OCT2; human, pH 7.4) was 4.92% and the inhibition at 2 min, 10 µM (OCT2; human, pH 7.4) was 7.34%. The inhibition at 2 min, 30 µM (OCT2; human, pH 7.4) was -8.07%, the inhibition at 2 min, 100 µM (OCT2; human, pH 7.4) was 49.2% and the IC50 (OAT3) was 41.1 µM. The Percentage transported (OAT3; OAT3, compound 0.3 μM) was 96.4%, the Uptake rate (OAT3; OAT3, compound 0.3 μM) was 101±1.22 pmol/mg protein/min and the Percentage transported (OAT3; OAT3, compound 1 μM) was 103%. For the same compound, the Uptake rate (OAT3; OAT3, compound 1 μM) was 106±2.62 pmol/mg protein/min, the Percentage transported (OAT3; OAT3, compound 3 μM) was 97.5% and the Uptake rate (OAT3; OAT3, compound 3 μM) was 102±3.76 pmol/mg protein/min. It also gave a Percentage transported (OAT3; OAT3, compound 10 μM) of 101%, an Uptake rate (OAT3; OAT3, compound 10 μM) of 105±1.14 pmol/mg protein/min and a Percentage transported (OAT3; OAT3, compound 30 μM) of 52.3%. The Uptake rate (OAT3; OAT3, compound 30 μM) was 63.6±3.38 pmol/mg protein/min, the Percentage transported (OAT3; OAT3, compound 100 μM) was 27.3% and the Uptake rate (OAT3; OAT3, compound 100 μM) was 42.5±2.15 pmol/mg protein/min. It also gave an inhibition at 2 min, 0.3 µM (OAT3; human, pH 7.4) of 3.57%, an inhibition at 2 min, 1 µM (OAT3; human, pH 7.4) of -2.52% and an inhibition at 2 min, 3 µM (OAT3; human, pH 7.4) of 2.54%. It also gave an inhibition at 2 min, 10 µM (OAT3; human, pH 7.4) of -0.883%, an inhibition at 2 min, 30 µM (OAT3; human, pH 7.4) of 47.7% and an inhibition at 2 min, 100 µM (OAT3; human, pH 7.4) of 72.7%. For the same compound, the “calculated R value (OAT3)” value (OAT3; renal OATs) was under 1.1.
